Results on 15 compounds are retold here after patent publication US9670197B2, “Small molecule modifiers of the Hec1-Nek2 interaction in G2/M” (The Regents of the University of California, priority 2013, dated 2017).

One test deals with HeLa. Kind of test: Cancer cell growth inhibition, HeLa. The class given is cell-based. To be noted: Homo sapiens; Table 1, HeLa; read-out: HeLa IC50. The method, then: Cell lines and establishment of stable cell lines. Human breast cancer cell lines MDA-MB-231 and MDA-MB-468, osteosarcoma line U20S, cervical adenocarcinoma line HeLa, and normal skin fibroblast Hs27 were maintained in DMEM medium (Invitrogen, Grand Island, N.Y.) supplemented 10% fetal bovine serum (FBS) and 1% penicillin-streptomycin. The leukemia cell line K562 and glioblastoma cell line T98G were grown in RPMI 1640 supplemented 10% FBS and 1% penicillin-streptomycin. Normal mammary gland epithelial cell line MCF10A was cultured in DMEM/F12 (50:50) plus 5% horse serum, 0.1 μg/mL cholera toxin, 10 μg/mL insulin, 0.5 μg/mL hydrocortisone, and 20 ng/mL epidermal growth factor. To establish MDA-MB-468 cells that stably expressed each individual GFP-Hec1 deletion construct described above, cells were infected with retrovirus expressing GFP-Hec1 WT, GFP-Hec1 W395A and GFP-Hec1 WLK/AAA, and were selected with 2 μg/ml puromycin.

Another test has as its system MB468. Nature of the test: Cancer cell growth inhibition, MB468 (MDA-MB-468). Type of test: cell-based. The following applies: Homo sapiens, Table 1, MB468, read-out: MB468 IC50.
The next test relates to cancer cell lines. Kind of test: Cancer cell growth inhibition. Type of test: cell-based.
In the next test the test system is Nek2. Kind of test: Nek2 protein level in treated HeLa cells, western blot. The class given is cell-based. The following applies: co-treatment with INH41 or INH154. The procedure: INH-induced Nek2 degradation; INH-inhibition of Hec1 phosphorylation by Nek2. […] To evaluate whether INH treatment affected cell cycle profile or Nek2 mRNA level, we performed FACS and real-time PCR analysis.
Protein extraction and western blot analysis. The protein extractions and western blot analyses of Examples 4-6 were conducted as follows. Cell extracts were prepared and equal amounts of protein were separated by SDS-PAGE (10% w/v gel) followed by electrophoretic transfer to PVDF membranes (Millipore, Billerica, Mass.). After blocking with 5% w/v powdered non-fat milk, the membrane was incubated with different antibodies for overnight at 4° C. and treated for 1 hr with horseradish peroxidase-conjugated goat anti-mouse IgG and goat anti-rabbit IgG antibodies (GeneTex, Irvine, Calif.). ECL detection of the horseradish peroxidase reaction was performed according to the manufacturer's instructions (Millipore, Billerica, Mass.). Protein signal was measured on a LAS 4000 mini Imaging System (Fujifilm, Valhalla, N.Y.).
A general note: In western blotting, separated proteins are transferred to a membrane and probed.

A further test deals with Hec1. Nature of the test: Biotin-conjugated INH pull-down of Hec1 and Hec1 mutants. The class given is binding.

Where a SMILES comes first, the peptide text is derived from it. The star is where a group is joined. Cbz = O=C(OCc1ccccc1)*

One may read the IC50 as the concentration that gives 50% inhibition. For `COc1cc(C)cc(C)c1-c1csc(NC(=O)c2ccncc2)n1` [INH56], the IC50 with HeLa was found to be 1800 nM; with MB468, 4500 nM.

Consider `Cc1cc([N+](=O)[O-])cc(C)c1-c1csc(NC(=O)c2ccncc2)n1` [INH78, N-(4-(2,6-Dimethyl-4-nitrophenyl)thiazol-2-yl)isonicotinamide], for which the IC50 stood at 630 nM in the test on HeLa and 1400 nM in the test with MB468. In addition, the “inhibition of cancer cell growth, IC50 (in words)” value (“inhibition of cancer cell growth” for short) in the test with cancer cell lines is “sub-micromolar IC50”.

Regarding `Cc1cc(N)cc(C)c1-c1csc(NC(=O)c2ccncc2)n1` [INH79, N-(4-(4-amino-2,6-dimethylphenyl)thiazol-2-yl)isonicotinamide], the IC50 in the test with HeLa was 2300 nM; in the test with MB468, 3200 nM.

As for `Cc1cc(F)cc(C)c1-c1csc(NC(=O)c2ccncc2)n1` [INH80, N-(4-(4-fluoro-2,6-dimethylphenyl)thiazol-2-yl)isonicotinamide], the IC50 in the test with HeLa is 2000 nM; in the test on MB468, 4400 nM.

Consider `COc1cncc(Oc2cc(C)c(-c3csc(NC(=O)c4ccncc4)n3)c(C)c2)n1` [INH81, N-(4-(4-((6-methoxypyrazin-2-yl)oxy)-2,6-dimethylphenyl)thiazol-2-yl)isonicotinamide], for which the values for the IC50 in the test on HeLa and in the test on MB468 were 1400 nM and 400 nM, respectively. Moreover, the “inhibition of cancer cell growth” value with cancer cell lines is “sub-micromolar IC50”.

With `Cc1cc(NC(=O)C2CC2)cc(C)c1-c1csc(NC(=O)c2ccncc2)n1` [INH136, N-(4-(4-((cyclopropylcarbonyl)amino)-2,6-dimethylphenyl)thiazol-2-yl)isonicotinamide], the IC50 in the test with HeLa stood at 1500 nM; in the test on MB468, 3400 nM.

As for `Cc1cc(NC(=O)CCC(=O)O)cc(C)c1-c1csc(NC(=O)c2ccncc2)n1` [INH146, 4-(4-(2-(isonicotinamido)thiazol-4-yl)-3,5-dimethylphenylamino)-4-oxobutanoic acid], the IC50 in the test on HeLa is over 5000 nM; in the test on MB468, over 10000 nM.

As for `Cc1cc(NCC(=O)O)cc(C)c1-c1csc(NC(=O)c2ccncc2)n1` [INH156, N-(4-(2-(Isonicotinamido)thiazol-4-yl)-3,5-dimethylphenyl)-glycine], the IC50 with HeLa came to 2400 nM; with MB468 it was 9400 nM.

As to `Cc1cc(N2C(=O)CCC2=O)cc(C)c1-c1csc(NC(=O)c2ccncc2)n1` [INH160, N-(4-(4-(2,5-dioxopyrrolidin-1-yl)-2,6-dimethylphenyl)thiazol-2-yl)isonicotinamide], the IC50 turned out to be 5000 nM in the test on HeLa and 3300 nM with MB468.

Consider `Cc1cc(N2CCOCC2)cc(C)c1-c1csc(NC(=O)c2ccncc2)n1` [INH168], for which the figures for the IC50 in the test with HeLa and with MB468 were 200 nM and 120 nM, respectively. Further, in the test with cancer cell lines, the “inhibition of cancer cell growth” value was “sub-micromolar IC50”.

On to `Cc1cc(C#N)cc(C)c1-c1csc(NC(=O)c2ccncc2)n1` [INH174, N-(4-(4-Cyano-2,6-dimethylphenyl)thiazol-2-yl)isonicotinamide], for which the IC50 in the test with HeLa is 600 nM; with MB468, 500 nM. Moreover, the “inhibition of cancer cell growth” value in the test on cancer cell lines is reported as “sub-micromolar IC50”.

As for `Cc1cc(O)cc(C)c1-c1csc(NC(=O)c2ccncc2)n1` [INH182, N-(4-(4-hydroxy-2,6-dimethylphenyl)thiazol-2-yl)isonicotinamide], the values for the IC50 with HeLa and in the test with MB468 were 3500 nM and 2000 nM, respectively.

`Cc1cc(N2CCN(C)CC2)cc(C)c1-c1csc(NC(=O)c2ccncc2)n1` [INH212, N-(4-(2,6-dimethyl-4-(4-methylpiperazin-1-yl)phenyl)thiazol-2-yl)isonicotinamide]: the IC50 in the test on HeLa turned out to be 2500 nM; with MB468, 2400 nM.

In the case of `CC(C)C[C@@H](C=O)NC(=O)[C@H](CC(C)C)NC(=O)[C@H](CC(C)C)NC(=O)OCc1ccccc1` [MG132, reference compound] (Cbz-Leu-Leu-Leu-aldehyde), the “effect on INH-induced degradation of Nek2” value in the test on Nek2 is listed as “prevented INH-induced degradation of Nek2”.

On to `Cc1cc(N2CCC(OCCOCCOCCOCCNC(=O)CCCC[C@@H]3SC[C@@H]4NC(=O)N[C@@H]43)CC2)cc(C)c1-c1csc(NC(=O)c2ccncc2)n1` [biotin-INH154, N-(4-(2,6-dimethyl-4-(4-((13-oxo-17-((3aS,4S,6aR)-2-oxohexahydro-1H-thieno [3,4-d]imidazol-4-yl)-3,6,9-trioxa-12-azaheptadecyl)oxy)piperidin-1-yl)phenyl)thiazol-2-yl)isonicotinamide], for which, in the test on Hec1, the “binding of Hec1 W395A and W395A/L399A/K400A mutants” value was “neither mutant was able to bind”.
